Assays:
E. coli BAA-2452 = assay: H33342 bisbenzimide dye uptake assay, E. coli BAA-2452; format: cell-based, Escherichia coli; details: E. coli BAA-2452, 7×10^8 CFU/mL, non-lethal concentration
Procedure: Overnight culture of E. coli BAA-2452™ and K. pneumoniae BAA-2146™ were used to inoculate fresh CAMHB media for another 5 hr at 35° C. with shaking. Bacterial cells were collected by centrifugation at 6000 rpm for 40 min and resuspended in PBS. The OD600 of the cell suspension was adjusted to about 1.0 and kept at room temperature during the experiment. Aliquots (180 μL/well) of the cell suspension were transferred to a 96-well flat-bottom black plate in the format of column 1, PBS blank; column 2, untreated control cells; column 3, cells+potentiator (sub-lethal concentration). Five technical replicates of each group were conducted. Fluorescent probe Hoechst 33342 bisbenzimide (H33342) was added (20 μL) to each well with a final concentration of 5 μM. Fluorescence was read immediately after the addition of H33342 by a Tecan Infinite M20 plate reader with the excitation and emission filters of 355 and 460 nm for H33342. Fluorescence data were normalized to the emission before cells were added in the PBS control, and they were plotted against time to show the cellular uptake of H33342 over 10 min. Control experiments of dye+600-Da BPEI were unchanged from fluorescence emission values obtained with dye only.

MRSA OU11 = assay: Resazurin cell viability assay, MRSA OU11; format: cell-based, Staphylococcus aureus
Procedure: Cell viability assays with resazurin were performed with MRSA OU11 cells grown in TSB as similar to the procedure of cell-permeation assays until they reach a density of ˜7×10^9 CFU/mL. Then the cell culture was transferred into a 96-well plate (100 μL/well) for BPEI or polymyxin B (PmB) treatments at varied concentrations from 64-512 μg/mL. Controls of untreated and positive control of 5% bleach were also conducted. The plate was incubated at 37° C. overnight. Resazurin (50 μL; final concentration of 50 μg/mL) was then added and, after 1 hour of incubation, the fluorescence intensity was measured (λex=560 nm; λen, =590 nm).

Gram-negative bacteria = details: paradigm; cited from earlier work
Gram-positive bacteria = details: paradigm; cited from earlier work

## polymyxin B
E. coli BAA-2452
  intracellular accumulation of H33342 (fluorescence) vs untreated cells: increases
MRSA OU11; MRSA OU11, 64 μg/mL PmB
  cell viability (resazurin): greater cell death than 512 μg/mL 600-Da BPEI
MRSA OU11; MRSA OU11, 512 μg/mL PmB
  cell viability (resazurin): complete loss of MRSA OU11 viability
MRSA OU11; MRSA OU11, ~7×10^9 CFU/mL, 64-512 μg/mL, overnight
  cell viability (resazurin): more lethal
Gram-negative bacteria
  MIC: ≤ 2 µg/mL
Gram-positive bacteria
  concentration required (MIC): ≥ 32 µg/mL

From patent publication US20230172971A1, “ANTIBIOTIC AND ANTI-INFLAMMATORY COMPOSITIONS AND METHODS OF USE” (priority 2020, published 2023)
